Earlier results as cited in patent EP0712633A1, “Pharmaceutical compositions for topical application” (Blank, Izhak, priority 1994, dated 1996).

Settings: 6-carboxylfluorescein

| SMILES | increase of plasma levels of the dye compared with a control (0.1% w/v in conjunction with sodium dodecyl sulfate 0.05% w/v) [times] | increase of penetration compared to the control (pretreatment of the skin with 4%) [times] |
| --- | --- | --- |
| OCCS [2-mercaptoethanol] | 40 |  |
| O=C(O)CS [calcium thioglycolate] |  | 9 |
